The record followed here is US11932652B2, “Pyrrolidinyl urea derivatives and application thereof in TrkA-related diseases” (ZHANGZHOU PIEN TZE HUANG PHARMACEUTICAL CO., LTD., priority 2018, dated 2024).

The IC50 is the concentration that inhibits the measured activity by half. High values mean lower potency, low ones higher potency.

For one series, the target named is T1, CYP2D6 (Homo sapiens, UniProt P10635).
T1 construct: from tissue; host or cells: human liver microsomes
Description: Cytochrome P450 isozyme inhibitory activity test, CYP2D6. The settings on record: human liver microsomes. It is filed as in vitro ADME. The method, then:
(§1) Determination of the inhibitory activity of the test compound on different human cytochrome P450 isozymes.
(§2) The test compound, standard inhibitor (100×final concentration), and a mixed substrate working solution were prepared; the microsome frozen in −80° C. refrigerator was thawed. […]

In a further series the target is T2, CYP3A4 (Homo sapiens, UniProt P08684).
T2 construct: from tissue; host or cells: human liver microsomes
As to the kind of experiment: Cytochrome P450 isozyme inhibitory activity test, CYP3A4. It is filed as in vitro ADME. The settings on record: human, human liver microsomes. Here is the method:
as §1
(§3) The test compound, standard inhibitor (100×final concentration), and a mixed substrate working solution were prepared; the microsome frozen in −80° C. refrigerator was thawed. 2 μL of the test compound and standard inhibitor solution was added to the corresponding wells, and at the same time 2 μL of the corresponding solvent was added to the non-inhibitor control wells (NIC) and blank control wells (Blank) wells; then 20 μL of mixed substrate solution was added to the corresponding wells, except for the Blank wells (20 μL of PB was added to the Blank wells); a human liver microsome solution was prepared (put back into the refrigerator immediately after using and marking the date), and then 158 μL of the human liver microsome solution was added to all wells; the above sample plate was placed in a 37° C. water bath for pre-incubation, then the coenzyme factor (NADPH) solution was prepared; 10 minutes later, 20 μL of the NADPH solution was added to all wells, and the sample plate was shaken well, placed in a 37° C. water bath and incubated for 10 minutes; at the corresponding time point, 400 μL of cold acetonitrile solution (internal standard: 200 ng/mL tolbutamide and labetalol) was added to terminate the reaction; the sample plate was evenly mixed, centrifuged at 4000 rpm for 20 minutes to precipitate proteins; 200 μL of the supernatant was added to 100 μL of water, shook well, and tested by LC/MS/MS.
For orientation: Microsomes from liver hold many membrane-bound enzymes, among them those of drug oxidation.

The next series has as its target T3, CYP2C9 (Homo sapiens, UniProt P11712).
T3 construct: from tissue; host or cells: human liver microsomes
As to the kind of experiment: Cytochrome P450 isozyme inhibitory activity test, CYP2C9. In kind it is in vitro ADME. The method, then: as §1, §2

The next series has as its target T4, CYP2C19 (Homo sapiens, UniProt P33261).
T4 construct: from tissue; host or cells: human liver microsomes
As to the kind of experiment: Cytochrome P450 isozyme inhibitory activity test, CYP2C19. It is filed as in vitro ADME. Particulars: heading: Cytochrome P450 isozyme IC50, CYP2C19; human liver microsome. The method, then: as §1, §3

The target in the next series is T5, TrkA (Homo sapiens, UniProt P04629).
T5 construct: purchased Invitrogen PV4114
Description: TrkA enzyme activity test (HTRF). It is filed as biochemical. Particulars: 0.5 nM TrkA kinase, 90 μM ATP, 23° C., 90 minutes. The method, then:
50 mM Hepes (pH 7.5), 5 mM MgCl2 (magnesium chloride), 0.01 mM orthovanadate (sodium vanadate), 1% BSA (bovine serum albumin), 1 mM (dithiothreitol)
This experiment used Cisbio's homogeneous time-resolved fluorescence resonance energy transfer (HTRF® method) for activity test. In the test plate, the enzyme, biotin-labeled peptide substrate, ATP, and test compound were mixed, and incubated for reaction. After the reaction, ethylenediaminetetraacetic acid was added to terminate the reaction; at the same time, Eu-labeled antibody and streptavidin-labeled XL665 were added for reaction and detection. The data were expressed by the readings of the fluorescence signal at 665 nm and 620 nm, where a high ratio of 665 nm/620 nm indicated higher activity, and a low ratio of 665 nm/620 nm indicated inhibition of activity.
1. Dilution of compound: the test compound was 3-fold diluted to prepare a total of 11 concentrations, the concentration was from 10 μM to 0.17 nM in the final system;
2. A 10 μL reaction system with a buffer of 50 mM Hepes (pH 7.5), 5 mM MgCl2, 0.01 mM sodium vanadate, 1% BSA, and 1 mM DTT, and containing 0.5 nM TrkA kinase, 0.3 μM biotin-TK peptide (biotin-labeled tyrosine kinase substrate peptide), 90 μM ATP was incubated at 23° C. for 90 minutes. 10 μL of stop solution containing 20 mM EDTA, 1.34 nM phosphorylated substrate antibody, and 100 nM streptavidin-labeled fluorescent molecule XL-665 was then added, incubated at 23° C. for 60 minutes; the signal was read with Envision;
3. The inhibition rate of the compound was calculated from the data read by the instrument, and the IC50 value was calculated using the mode 205 in XLFIT5 of IDBS.
(In TR-FRET formats the signal depends on donor and acceptor labels being close together.)

Series [1] deals with plasma protein. As to the kind of experiment: Plasma protein binding rate (PPB) test, human plasma. It is filed as in vitro ADME. The settings on record: 2 μM, dialysis 37° C. 4 hours. Here is the method:
(§4) The protein binding rates of the test compound in the plasma of humans, SD rats and Beagle dogs were determined.
(§5) 796 μL of blank plasma from humans, SD rats and Beagle dogs (plasma purchased from BioreclamationIVT) were taken, 4 μL of working solution of the test compound (400 μM) or warfarin working solution (400 μM) was added and the final concentration of the test compound or warfarin was 2 μM. The sample was mixed thoroughly. The final concentration of organic phase DMSO was 0.5%; 50 μL of the plasma sample treated with the test compound or warfarin was pipetted into the sample receiving plate, and a corresponding volume of blank plasma or buffer was added immediately so that the final volume in each sample well was 100 μL, the volume ratio of plasma:dialysis buffer was 1:1; 400 μL of stop solution was added to these samples, and these samples were used as T0 samples for recovery and stability determination. To samples were stored at 2° C. to 8° C. for subsequent processing together with other dialyzed samples; 150 μL of the plasma sample treated with the test compound or warfarin was added into the dosing end of each dialysis hole, and 150 μL of blank dialysis buffer was added to the receiving end corresponding to the dialysis hole. Then the dialysis plate was sealed with gas-permeable membrane and placed in a humidified 5% CO2 incubator, and incubated at 37° C. with 100 rpm shaking for 4 hours. After the dialysis, 50 μL of the dialysis buffer sample and the dialysis plasma sample was transferred to a new sample receiving plate. […] All samples were analyzed by LC/MS/MS after protein precipitation, and the plasma protein unbound rate, binding rate and recovery rate was calculated according to the following formula: % unbound rate=100*free compound concentration at the membrane buffer side/total compound concentration at the membrane plasma side, % protein binding rate=100-% unbound rate, % recovery rate=100*(free compound concentration at the membrane buffer side+total compound concentration at the membrane plasma side)/total compound concentration before dialysis.

Series [2] in a line: Metabolic stability (MMS) by rat liver microsome. Particulars: liver microsomes, pH 7.4, 0.5 mg protein/mL, read-out: Intrinsic clearance by liver microsome, Rat. It is filed as in vitro ADME. The method, then:
(§6) Determination of the metabolic stability of the test compound by human, rat and canine liver microsome.
(§7) Test compound (10 mM), testosterone (reference compound, 10 mM), diclofenac (reference compound, 10 mM), propafenone (reference compound, 10 mM).
(§8) 100 mM potassium phosphate buffer (pH 7.4).
(§9) Intermediate solution: 45 μL of DMSO was used (with 450 μL of 1:1 methanol/water) to dilute 5 μL of the test or reference compound.
(§10) Working solution: 450 μL of 100 mM potassium phosphate buffer was used to dilute the intermediate solution.
(§11) 1. β-Nicotinamide adenine dinucleotide phosphate, from Sigma, Cat. No. N0505.
(§12) 3. Isocitrate dehydrogenase, from Sigma, Cat. No. 12002.
(§13) Preparation of liver microsome solution (final concentration: 0.5 mg protein/mL)
(§14) Cold acetonitrile containing 100 ng/mL tolbutamide and 100 ng/mL labetalol was used as the internal standard.
(§15) 10 μL of the working solution of the test compound or reference compound was added to all plates (T0, T5, T10, T20, T30, T60, NCF60).
(§16) 680 μL of liver microsome solution was added to each well of 96-well plates, then 80 μL was added to each well of the plates, and the plates were placed at 37° C. for pre-incubation for approximately 10 minutes. […]
(§17) The half-life T/2 and the intrinsic clearance by liver microsome Clint(mic) were calculated by the following formulas: […]

Series [3] has as its system plasma protein. Description: Plasma protein binding rate (PPB) test, SD rat plasma. The settings on record: 2 μM, dialysis 37° C. 4 hours. It is filed as in vitro ADME. The method, then:
as §4, §5

Series [4] can be described thus: Metabolic stability (MMS) by human liver microsome. Particulars: liver microsomes, pH 7.4, 0.5 mg protein/mL, read-out: Intrinsic clearance by liver microsome, Human. In kind it is in vitro ADME. The method, then:
as §6, §7, §8, §9, §10, §11, §12, §13, §14, §15, §16, §17

T5 sequence (P04629 33-796): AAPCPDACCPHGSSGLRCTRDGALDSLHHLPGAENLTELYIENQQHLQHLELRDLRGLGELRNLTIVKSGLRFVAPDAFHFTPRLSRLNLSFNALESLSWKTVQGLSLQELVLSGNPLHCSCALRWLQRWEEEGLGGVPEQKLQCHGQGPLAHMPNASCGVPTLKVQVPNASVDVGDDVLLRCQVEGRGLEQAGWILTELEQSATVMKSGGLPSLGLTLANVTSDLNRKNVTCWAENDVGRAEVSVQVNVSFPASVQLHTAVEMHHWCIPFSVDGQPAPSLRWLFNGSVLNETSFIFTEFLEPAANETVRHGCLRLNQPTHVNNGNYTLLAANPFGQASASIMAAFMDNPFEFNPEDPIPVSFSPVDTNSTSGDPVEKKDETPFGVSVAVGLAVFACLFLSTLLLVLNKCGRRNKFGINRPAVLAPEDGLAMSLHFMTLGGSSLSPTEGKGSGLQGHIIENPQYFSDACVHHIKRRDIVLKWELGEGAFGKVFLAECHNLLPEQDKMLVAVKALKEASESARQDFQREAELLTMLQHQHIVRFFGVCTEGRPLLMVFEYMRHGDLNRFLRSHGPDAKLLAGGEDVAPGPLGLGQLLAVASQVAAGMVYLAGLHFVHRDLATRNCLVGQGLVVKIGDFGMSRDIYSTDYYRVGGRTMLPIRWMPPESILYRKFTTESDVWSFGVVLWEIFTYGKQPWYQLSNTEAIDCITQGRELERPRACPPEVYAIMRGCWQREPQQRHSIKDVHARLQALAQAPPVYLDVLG
T1 sequence (P10635 whole entry): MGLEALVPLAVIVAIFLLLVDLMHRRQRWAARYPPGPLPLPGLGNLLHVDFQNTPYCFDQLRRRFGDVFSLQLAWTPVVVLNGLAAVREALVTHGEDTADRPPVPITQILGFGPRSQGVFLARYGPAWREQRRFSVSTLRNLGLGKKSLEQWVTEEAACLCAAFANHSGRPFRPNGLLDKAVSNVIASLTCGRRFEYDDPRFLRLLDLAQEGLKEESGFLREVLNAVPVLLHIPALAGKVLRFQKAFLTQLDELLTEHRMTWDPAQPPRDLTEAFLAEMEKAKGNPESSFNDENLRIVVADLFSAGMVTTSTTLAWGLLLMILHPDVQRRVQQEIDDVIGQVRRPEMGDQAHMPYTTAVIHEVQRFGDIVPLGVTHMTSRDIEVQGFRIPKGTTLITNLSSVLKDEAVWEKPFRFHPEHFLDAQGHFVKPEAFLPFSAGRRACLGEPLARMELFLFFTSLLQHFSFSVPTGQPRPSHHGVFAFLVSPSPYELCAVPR
T3 sequence (P11712 whole entry): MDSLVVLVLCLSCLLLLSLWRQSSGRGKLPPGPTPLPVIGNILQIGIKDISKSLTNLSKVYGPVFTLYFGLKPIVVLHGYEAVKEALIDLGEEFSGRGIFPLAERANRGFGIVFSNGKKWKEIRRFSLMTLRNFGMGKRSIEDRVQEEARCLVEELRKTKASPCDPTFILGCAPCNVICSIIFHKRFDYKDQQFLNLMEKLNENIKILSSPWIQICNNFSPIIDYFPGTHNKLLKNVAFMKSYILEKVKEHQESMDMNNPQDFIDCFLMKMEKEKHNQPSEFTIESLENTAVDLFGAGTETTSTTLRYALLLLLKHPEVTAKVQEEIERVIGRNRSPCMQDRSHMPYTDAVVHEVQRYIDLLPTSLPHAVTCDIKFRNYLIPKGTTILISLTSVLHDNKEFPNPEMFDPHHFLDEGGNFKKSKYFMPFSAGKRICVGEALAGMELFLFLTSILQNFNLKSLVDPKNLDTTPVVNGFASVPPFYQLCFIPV
T2 sequence (P08684 whole entry): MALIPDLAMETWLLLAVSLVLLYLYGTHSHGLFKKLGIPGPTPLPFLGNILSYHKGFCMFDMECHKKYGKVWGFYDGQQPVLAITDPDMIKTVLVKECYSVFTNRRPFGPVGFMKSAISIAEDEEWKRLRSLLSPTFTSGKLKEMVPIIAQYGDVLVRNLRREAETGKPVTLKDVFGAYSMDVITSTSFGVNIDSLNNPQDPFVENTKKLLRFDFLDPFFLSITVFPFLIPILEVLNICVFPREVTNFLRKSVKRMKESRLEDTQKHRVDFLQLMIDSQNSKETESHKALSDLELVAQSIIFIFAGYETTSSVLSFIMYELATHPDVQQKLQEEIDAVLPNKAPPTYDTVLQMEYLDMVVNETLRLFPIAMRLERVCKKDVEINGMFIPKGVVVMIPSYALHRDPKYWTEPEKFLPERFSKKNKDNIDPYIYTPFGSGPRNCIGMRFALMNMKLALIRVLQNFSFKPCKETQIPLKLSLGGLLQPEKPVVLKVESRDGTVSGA
T4 sequence (P33261 whole entry): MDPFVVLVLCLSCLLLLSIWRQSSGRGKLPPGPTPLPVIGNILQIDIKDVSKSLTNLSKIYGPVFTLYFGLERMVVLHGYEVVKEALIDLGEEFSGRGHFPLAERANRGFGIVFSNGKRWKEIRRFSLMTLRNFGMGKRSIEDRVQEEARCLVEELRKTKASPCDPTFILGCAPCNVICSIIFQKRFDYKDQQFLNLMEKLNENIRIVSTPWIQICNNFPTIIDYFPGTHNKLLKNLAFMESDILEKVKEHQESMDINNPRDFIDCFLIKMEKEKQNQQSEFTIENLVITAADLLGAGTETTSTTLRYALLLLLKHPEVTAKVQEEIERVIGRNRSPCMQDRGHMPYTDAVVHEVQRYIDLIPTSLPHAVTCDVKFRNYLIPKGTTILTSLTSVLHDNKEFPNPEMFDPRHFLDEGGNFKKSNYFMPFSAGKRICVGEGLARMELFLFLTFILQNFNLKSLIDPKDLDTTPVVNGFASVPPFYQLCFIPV

In the case of `COCCN1C[C@@H](n2cc(F)c(F)c2)[C@H](NC(=O)Nc2c(C)c(-c3cnc4c(c3)COC4)nn2-c2ccccc2)C1` [Compound 1], the IC50 at 10 min on CYP2D6 was found to be 28.5 µM; against CYP3A4 it was 19.2 µM; against CYP2C9 (human, human liver microsomes), 24.2 µM. Besides, the IC50 on CYP2C19 was > 50 µM; at TrkA, 0.00016 µM.
For `COCCN1C[C@@H](n2cc(F)c(F)c2)[C@H](NC(=O)Nc2c(C)c(-c3cnc4c(c3)CN(C)C4)nn2-c2ccccc2)C1` [Compound 2], the “Plasma protein unbound rate, Human plasma” value with plasma protein [1] turned out to be 15.3%. In addition, the CLint scaled in series [2] was found to be 25.5 mL/min/kg; in series [4], 54.6 mL/min/kg. For the same compound, the “Plasma protein unbound rate, SD Rat plasma” value in the series on plasma protein [3] turned out to be 5.1%. In addition, on TrkA, the IC50 was 0.00027 µM.
The compound `COCCN1C[C@@H](n2ccc(F)c2)[C@H](NC(=O)Nc2c(C)c(-c3cc4n(n3)CCC4)nn2-c2ccccc2)C1` [Compound 4] returned an IC50 against TrkA of 0.00305 µM.
The same measure, in the same setting: for `COCCN1C[C@@H](n2ccc(F)c2)[C@H](NC(=O)Nc2c(C)c(-c3cnc4c(c3)COC4)nn2-c2ccccc2)C1` [Compound 5] the value was 0.00024 µM; for `COCCN1C[C@@H](n2cc(F)c(F)c2)[C@H](NC(=O)Nc2c(C)c(-c3cnc(C4(F)COC4)nc3)nn2-c2ccccc2)C1` [Compound 6], 0.00027 µM; for `COCCN1C[C@@H](n2ccc(F)c2)[C@H](NC(=O)Nc2c(C)c(-c3cnc(C4(F)CNC4)nc3)nn2-c2ccccc2)C1` [Compound 8], 0.00103 µM.
Turning to `COCCN1C[C@@H](NC(=O)Nc2c(C)c(-c3cnc(C)nc3)nn2-c2ccccc2)[C@H](c2cccc(F)c2)C1` [Reference compound D1, reference compound], the “Plasma protein unbound rate, Human plasma” value in the series on plasma protein [1] was determined as 13.6%. In addition, the IC50 at 10 min against CYP2D6 is 39.7 µM; on CYP3A4, 37.1 µM. Besides, the IC50 at CYP2C9 (heading: Cytochrome P450 isozyme IC50, CYP2C9, human liver microsome) was > 50 µM; on CYP2C19 it was > 50 µM. For the same compound, the CLint scaled in series [2] came to 52.9 mL/min/kg; in series [4], 52.1 mL/min/kg. Besides, the “Plasma protein unbound rate, SD Rat plasma” value with plasma protein [3] was 9.6%.
